Source: patent US10723723B2, “Substituted bicycle heterocyclic derivatives useful as ROMK channel inhibitors” (BRISTOL-MYERS SQUIBB COMPANY, priority 2016, dated 2020)
pIC50: −log10 of the molar value.

The compounds below were run against hROMK (human Kir1.1) (Homo sapiens (Human), UniProt P48048) (assay: Thallium Flux Assay (FluxOR, CHO T-Rex hROMK stable cell line)). Details: CHO T-Rex hROMK cells, 10-point concentration response curve; read-out: Human ROMK TH Flux IC50.
Type: cell-based

Chain of hROMK (human Kir1.1) (P48048 whole entry): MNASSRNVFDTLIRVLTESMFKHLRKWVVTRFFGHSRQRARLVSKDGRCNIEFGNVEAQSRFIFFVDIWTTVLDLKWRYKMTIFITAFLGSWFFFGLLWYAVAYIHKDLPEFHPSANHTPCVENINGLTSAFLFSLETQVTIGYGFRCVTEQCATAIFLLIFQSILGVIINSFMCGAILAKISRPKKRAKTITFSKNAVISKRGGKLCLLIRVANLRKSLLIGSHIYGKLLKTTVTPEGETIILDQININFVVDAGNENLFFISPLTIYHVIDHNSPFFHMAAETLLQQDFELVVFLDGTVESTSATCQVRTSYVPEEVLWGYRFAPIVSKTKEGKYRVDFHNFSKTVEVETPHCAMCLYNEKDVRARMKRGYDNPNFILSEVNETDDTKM

Compared with Cc1c(C(O)CN(C)Cc2ccc(-n3ccc4cc(C#N)ccc43)cc2)ccc2c1COC2=O (single isomer, unassigned) [Example 32-I, 1-(4-(((2-hydroxy-2-(4-methyl-1-oxo-1,3-dihydroisobenzofuran-5-yl)ethyl)(methyl)amino)methyl)phenyl)-1H-indole-5-carbonitrile], Cc1cc(-n2ccc3cc(CN(C)CC(O)c4ccc5c(c4C)COC5=O)ccc32)ncc1C#N (single isomer, unassigned) [Example 33-I, 6-(5-(((2-hydroxy-2-(4-methyl-1-oxo-1,3-dihydroisobenzofuran-5-yl)ethyl)(methyl)amino)methyl)-1H-indol-1-yl)-4-methylnicotinonitrile] is 0.80 log units lower in pIC50: 6.28 for the first, 5.48 for the second. The first is the more potent here.

Cc1cc(-n2cc(CNC[C@H](O)c3ccc4c(c3C)COC4=O)cn2)cc(C)n1 [Example 164, (R)-5-(2-(((1-(2,6-dimethylpyridin-4-yl)-1H-pyrazol-4-yl)methyl)amino)-1-hydroxyethyl)-4-methylisobenzofuran-1(3H)-one] and CCn1c(=O)oc2ccc(-n3cc(CNC[C@H](O)c4ccc5c(c4C)COC5=O)cn3)cc21 [Example 125, (R)-3-ethyl-5-(4-(((2-hydroxy-2-(4-methyl-1-oxo-1,3-dihydroisobenzofuran-5-yl)ethyl)amino)methyl)-1H-pyrazol-1-yl)benzo[d]oxazol-2(3H)-one] are within 0.2 log units of each other in pIC50: 6.55 for the first, 6.41 for the second.

Cc1c([C@@H](O)CNCc2cnn(-c3ccnc4c3ccn4C)c2)ccc2c1COC2=O [Example 166, (R)-5-(1-hydroxy-2-(((1-(1-methyl-1H-pyrrolo[2,3-b]pyridin-4-yl)-1H-pyrazol-4-yl)methyl)amino)ethyl)-4-methylisobenzofuran-1(3H)-one] and Cc1c([C@@H](O)CNCc2cnn(-c3cc(N4CCOC4=O)ccn3)c2)ccc2c1COC2=O [Example 143, (R)-3-(2-(4-(((2-hydroxy-2-(4-methyl-1-oxo-1,3-dihydroisobenzofuran-5-yl)ethyl)amino)methyl)-1H-pyrazol-1-yl)pyridin-4-yl)oxazolidin-2-one] are within 0.2 log units of each other in pIC50: 5.89 for the first, 6.00 for the second.

Compared with Cc1cn(-c2ccc(CNC[C@H](O)c3ccc4c(c3C)COC4=O)c(C)n2)cn1 [Example 77], Cc1cn(-c2cc(C)c(CNC[C@H](O)c3ccc4c(c3C)COC4=O)cn2)cn1 [Example 76, (R)-5-(1-hydroxy-2-(((4-methyl-6-(4-methyl-1H-imidazol-1-yl)pyridin-3-yl)methyl)amino)ethyl)-4-methylisobenzofuran-1(3H)-one] is 0.37 log units higher in pIC50: 6.72 for the first, 7.09 for the second. The second is the more potent here.

First: CN(Cc1ccc(-c2ccc(C#N)c(F)c2)cc1)Cc1ccc2c(c1)COC2=O [Example 29, 3-fluoro-4′-((methyl((1-oxo-1,3-dihydroisobenzofuran-5-yl)methyl)amino)methyl)-[1,1′-biphenyl]-4-carbonitrile]
Second: CC(=O)N(Cc1ccc(-c2ccc(C#N)c(F)c2)cc1)CC(O)c1ccc2c(c1C)COC2=O (single isomer, unassigned) [Example 34-I, N-((4′-cyano-3′-fluoro-[1,1′-biphenyl]-4-yl)methyl)-N-(2-hydroxy-2-(4-methyl-1-oxo-1,3-dihydroisobenzofuran-5-yl)ethyl)acetamide]
The pIC50 of the first is 0.63 log units lower: 5.48 for the first, 6.11 for the second. The second is the more potent here.

Compared with CN(Cc1ccc(-c2ccc3oc(=O)n(C)c3c2)nc1)CC(O)c1ccc2oc(=O)n(C)c2c1 (single isomer, unassigned) [Example 5-I], Cc1c(C(O)CN(C)Cc2ccc(-c3ccc4oc(=O)n(C)c4c3)nc2)ccc2c1COC2=O (single isomer, unassigned) [Example 1-II, 5-(5-(((2-hydroxy-2-(4-methyl-1-oxo-1,3-dihydroisobenzofuran-5-yl)ethyl)(methyl)amino)methyl)pyridin-2-yl)-3-methylbenzo[d]oxazol-2(3H)-one] is 0.26 log units higher in pIC50: 5.82 for the first, 6.08 for the second. The second is the more potent here.

Cc1cc(-n2cc(CCNC(=O)Cc3ccc4c(c3C)COC4=O)cn2)ncc1C#N [Example 38, N-(2-(1-(5-cyano-4-methylpyridin-2-yl)-1H-pyrazol-4-yl)ethyl)-2-(4-methyl-1-oxo-1,3-dihydroisobenzofuran-5-yl)acetamide] and CN[C@@H](CNCc1cnn(-c2cc(C)c(C#N)cn2)c1)c1ccc2c(c1C)COC2=O [Example 64, (R)-4-methyl-6-(4-(((2-(4-methyl-1-oxo-1,3-diydroisobenzofuran-5-yl)-2-(methylamino)ethyl)amino)methyl)-1H-pyrazol-1-yl)nicotinonitrile] are within 0.2 log units of each other in pIC50: 6.47 for the first, 6.37 for the second.

Cc1cc(-c2cnc(CNC[C@H](O)c3ccc4c(c3C)COC4=O)nc2)ncc1C#N [Example 40, (R)-6-(2-(((2-hydroxy-2-(4-methyl-1-oxo-1,3-dihydroisobenzofuran-5-yl)ethyl)amino)methyl)pyrimidin-5-yl)-4-methylnicotinonitrile] and Cc1cc(-c2nc(CNC[C@H](O)c3ccc4c(c3C)COC4=O)cn2C)ncc1C#N [Example 86, (R)-6-(4-(((2-hydroxy-2-(4-methyl-1-oxo-1,3-dihydroisobenzofuran-5-yl)ethyl)amino)methyl)-1-methyl-1H-imidazol-2-yl)-4-methylnicotinonitrile] are within 0.2 log units of each other in pIC50: 6.47 for the first, 6.37 for the second.

Going from Cc1cn(-c2ccc(CNC[C@H](O)c3ccc4c(c3C)COC4=O)nn2)cn1 [Example 53, (R)-5-(1-hydroxy-2-(((6-(4-methyl-1H-imidazol-1-yl)pyridazin-3-yl)methyl)amino)ethyl)-4-methylisobenzofuran-1(3H)-one] to COc1cc(-n2cnc(C)c2)ncc1CNC[C@H](O)c1ccc2c(c1C)COC2=O [Example 89, (R)-5-(1-hydroxy-2-(((4-methoxy-6-(4-methyl-1H-imidazol-1-yl)pyridin-3-yl)methyl)amino)ethyl)-4-methylisobenzofuran-1(3H)-one], the pIC50 rises from 6.49 to 7.04 (0.55 log units).

Going from Cc1cc(-n2cc(CNC[C@@H](c3ccc4c(c3C)COC4=O)N(C)S(C)(=O)=O)cn2)ncc1C#N [Example 65, (R)-N-(2-(((1-(5-cyano-4-methylpyridin-2-yl)-1H-pyrazol-4-yl)methyl)amino)-1-(4-methyl-1-oxo-1,3-dihydroisobenzofuran-5-yl)ethyl)-N-methylmethanesulfonamide] to Cc1ncn(-c2ncc(CNC[C@H](O)c3ccc4c(c3C)COC4=O)cn2)n1 [Example 123, (R)-5-(1-hydroxy-2-(((2-(3-methyl-1H-1,2,4-ttiazol-1-yl)pyrimidin-5-yl)methyl)amino)ethyl)-4-methylisobenzofuran-1(3H)-one], the pIC50 falls from 7.42 to 6.68 (0.74 log units).

Compared with Cc1c(C(O)CN(Cc2ccc(-c3ccc(C#N)c(F)c3)cc2)Cc2cccnc2)ccc2c1COC2=O (centres unmarked) [Example 11-I, 3-fluoro-4′-(((2-hydroxy-2-(4-methyl-1-oxo-1,3-dihydroisobenzofuran-5-yl)ethyl)(pyridin-3-ylmethyl)amino)methyl)-[1,1′-biphenyl]-4-carbonitrile], Cc1c(C(O)CN(C)Cc2ccc(-n3ccc4cc(C#N)ccc43)cc2)ccc2c1COC2=O (single isomer, unassigned) [Example 30-II, 1-(4-(((2-hydroxy-2-(4-methyl-1-oxo-1,3-dihydroisobenzofuran-5-yl)ethyl)(methyl)amino)methyl)phenyl)-1H-indole-5-carbonitrile] is 0.49 log units higher in pIC50: 5.43 for the first, 5.92 for the second.

Cc1c([C@@H](O)CNC(C)(C)c2cnn(-c3ccc4oc(=O)n(C)c4c3)c2)ccc2c1COC2=O [Example 37, (R)-5-(4-(2-((2-hydroxy-2-(4-methyl-1-oxo-1,3-dihydroisobenzofuran-5-yl)ethyl)amino)propan-2-yl)-1H-pyrazol-1-yl)-3-methylbenzo[d]oxazol-2(3H)-one] gave a pIC50 of 6.03.
